In US12195467B2, “Compound having TrkA inhibitory activity and pharmaceutical composition, for preventing or alleviating pain, containing same as active ingredient” (JBKLAB CO., LTD., priority 2018, dated 2025):

How the values were obtained:
TrkC = molecular target: T1, TrkC (Homo sapiens, UniProt Q16288); experiment: PathHunter eXpress TrkC functional assay kit (U2OS cells, agonist NT-3); type: cell-based; details: compound 1 μM, read-out: TrkC % inhibition rate (based on 1 μM)
T1 construct: host or cells: U2OS
Procedure: (§1) The inhibitory activity of the example compounds against TrkB and TrkC was evaluated using PathHunter® eXpress TrkB or TrkC functional assay kit (Product Code: 93-0463E3 and 93-0464E3) of DiscoverX. The test was carried out according to the analysis method provided by the manufacturer. The test was carried out as follows over 2 or 3 days depending on the conditions of cells.
(§2) 1. Before starting the experiment, the cell plating (CP) reagent stored at −80° C. was dissolved in a 37° C. water bath.
(§3) 2. When the CP reagent was dissolved, cell vials for TrkB or TrkC were prepared to be dissolved.
(§4) 3. Two U2OS cell vials (TrkB kit & TrkC kit) stored in liquid nitrogen were thawed.
(§5) 4. 500 μL of CP reagent was added to the thawed cell vial, and the cells were sufficiently mixed by pipetting and transferred to a Conical tube in which 11.5 mL of CP reagent was dispensed.
(§6) 5. 12 mL cells (1×10^6 cells in CP reagent) were seeded on a 96-well tissue culture treated plate (100 μL/well), followed by culture in a 37° C., 5% CO2 humidified incubator for 24 hours or 48 hours.
(§7) Day 2 or Day 3: Treatment of Test Material
(§8) 1. Test material, agonist and antagonist were prepared as stock solutions according to the experiment design. • Test material: 10 mM Stock solution in DMSO • Antagonist (GNF-5837): 10 mM Stock solution in 1.8674 mL DMSO • Agonist: TrkB agonist→BDNF, TrkC agonist→NT-3
(§9) 2. 10 mM stock solutions of teat material and antagonist having the concentration of 22 times more concentrated than the final screening concentration were prepared according to the experiment design.
(§10) 3. Each well of the 96-well culture plate containing cells was treated with 5 μL of the solutions of teat material and antagonist having the concentration of 22 times more concentrated than the final screening concentration (#2), followed by incubation at 37° C. for 60 minutes.
(§11) 4. During the incubation, 10 μg/mL stock solution of each agonist for TrkB and TrkC was prepared using a reconstitution buffer for the purpose of the experiment, and each well of the plate was treated with 5 μL of the prepared solution, followed by incubation at 19-25° C. for 3 hours.
(§12) 5. During the incubation, a detection reagent working solution (4.75 ml Cell assay buffer, 1.25 ml Substrate Reagent 1, 0.25 ml Substrate Reagent 2) was prepared. Upon completion of the incubation, 55 μL of the working solution was added into each well of the plate.
(§13) 7. The plate was incubated at room temperature for 60 minutes in a dark place, and the […] was measured with a luminescence plate reader.

TrkA = molecular target: T2, TrkA (Homo sapiens, UniProt P04629); experiment: TrkA inhibitory activity, CycLex TrkA kinase assay/inhibitor screening kit; type: biochemical; details: for inhibition at 1 µM: compound 1 μM, read-out: % inhibition rate (based on 1 μM)
T2 construct: purchased MBL International (CycLex) CY-1091
Procedure: The TrkA inhibitory activity of the compounds was evaluated using CycLex® TrkA kinase assay/inhibitor screening kit of MBL International (Cat No. CY-1091). The test was carried out according to the analysis method provided by the manufacturer. The test method is as follows.
1. 1× wash buffer was prepared by diluting 10× wash buffer in ddH2O.
2. 20×ATP solution (1.25 mM) was prepared by adding 1.6 mL of distilled water to the tube containing ATP dissolved in NA2 salt and freeze-dried.
4. A working solution mixture and a solution of the appropriate concentration of the example compound to evaluate the activity of the example compound were prepared and dispensed into a 96-well plate as shown in table below.
5. After dispensing the solutions into a 96-well plate, the plate was incubated at 30° C. for 30 minutes.
6. After incubation of the plate at 30° C. for 30 minutes, 200 μL of 1× wash buffer was added into each well of the plate, followed by washing. This process was repeated 5 times.
7. After washing the plate, 100 μL of HRP conjugated detection antibody (PX-39) was added into each well of the plate, followed by reaction at room temperature for 60 minutes.
8. Upon completion of the reaction, 200 μL of 1× wash buffer was added into each well of the plate, followed by washing. This process was repeated 5 times.
9. After washing the plate, 100 μL of substrate reagent containing chromogenic substrate and tetra-methylbenzidine (TMB) was added into each well of the plate, followed by incubation at room temperature for 5-15 minutes.
10. Upon completion of the reaction, 100 μL of stop solution (1 N H2SO4) was added into each well of the plate, followed by measuring OD450 within 30 minutes.

TrkB = molecular target: T3, TrkB (Homo sapiens, UniProt Q16620); experiment: PathHunter eXpress TrkB functional assay kit (U2OS cells, agonist BDNF); type: cell-based; details: for inhibition at 1 µM: compound 1 μM, read-out: TrkB % inhibition rate (based on 1 μM)
T3 construct: host or cells: U2OS
Procedure: as §1, §2, §3, §4, §5, §6, §7, §8, §9, §10, §11, §12, §13

[1] = test system: postoperative pain animal model; experiment: Pharmacological activity in postoperative pain model (von-Frey mechanical allodynia, 50% withdrawal threshold); type: in vivo, Sprague-Dawley male rats
Procedure: Sprague-Dawley male rats weighing around 150 g (Orient bio., Korea) were used. Rats were raised in an environment where a 12-hour light-dark cycle was maintained, 4 per transparent plastic cage covered with scob as bedding. Food and water were provided freely. To verify the analgesic effect of the example compounds, all rats were anesthetized with O2 delivered from the induction chamber at a ratio of 3:3 of isoflurane and operated. Anesthetized rats were placed on a 37° C. warm plate to prevent hypothermia during the operation. The ipsilateral sole (left) of the hind paw of the experimental animal was disinfected with 10% povidone-iodine solution, and incised to a length of 1 cm with a #11 surgical knife. The incision was made starting from 0.5 cm of the proximal edge of the heel through the skin and fascia on the side of the ipsilateral sole toward the toe. After the incision, a gentle pressure was applied to the incision site to stop the bleeding and the skin was sutured. The surgical site was sterilized with 10% povidone-iodine solution, and gentamicin (8 mg/kg) was administered intraperitoneally to prevent infection. The analgesic effect of the compound on postoperative pain was evaluated in the experimental animals 2 days after the surgery. […] The formula for calculating the 50% withdrawal threshold (g) is as follows. 50% Withdrawal threshold (g)=(10^(x+kd))/10^4 [Mathematical Formula 1] • x=the value of the last tested filament (log unit value). • k=the value indicating positive/negative reaction by up-down method. • d=the value fixed at 0.224 as the average difference between stimuli.

T3 sequence (Q16620 32-822): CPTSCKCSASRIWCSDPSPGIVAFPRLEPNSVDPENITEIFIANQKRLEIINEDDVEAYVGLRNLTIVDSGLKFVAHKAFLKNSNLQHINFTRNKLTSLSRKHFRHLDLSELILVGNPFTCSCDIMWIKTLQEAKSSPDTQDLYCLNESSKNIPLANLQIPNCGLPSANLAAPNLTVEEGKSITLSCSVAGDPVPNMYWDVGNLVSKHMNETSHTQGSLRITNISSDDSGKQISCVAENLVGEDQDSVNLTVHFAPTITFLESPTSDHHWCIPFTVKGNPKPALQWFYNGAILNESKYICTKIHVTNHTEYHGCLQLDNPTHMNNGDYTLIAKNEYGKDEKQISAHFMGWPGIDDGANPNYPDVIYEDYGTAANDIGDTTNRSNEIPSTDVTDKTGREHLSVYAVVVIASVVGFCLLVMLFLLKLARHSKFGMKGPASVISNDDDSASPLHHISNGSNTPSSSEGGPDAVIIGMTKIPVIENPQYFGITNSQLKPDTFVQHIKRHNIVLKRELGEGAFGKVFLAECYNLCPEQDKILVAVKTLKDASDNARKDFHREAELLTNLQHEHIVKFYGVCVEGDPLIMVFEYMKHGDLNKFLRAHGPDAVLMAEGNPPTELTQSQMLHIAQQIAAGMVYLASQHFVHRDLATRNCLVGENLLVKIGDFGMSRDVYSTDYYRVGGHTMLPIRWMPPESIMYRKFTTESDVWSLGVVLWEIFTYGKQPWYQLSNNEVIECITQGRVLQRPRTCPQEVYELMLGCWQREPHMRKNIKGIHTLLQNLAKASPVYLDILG
T1 sequence (Q16288 32-839): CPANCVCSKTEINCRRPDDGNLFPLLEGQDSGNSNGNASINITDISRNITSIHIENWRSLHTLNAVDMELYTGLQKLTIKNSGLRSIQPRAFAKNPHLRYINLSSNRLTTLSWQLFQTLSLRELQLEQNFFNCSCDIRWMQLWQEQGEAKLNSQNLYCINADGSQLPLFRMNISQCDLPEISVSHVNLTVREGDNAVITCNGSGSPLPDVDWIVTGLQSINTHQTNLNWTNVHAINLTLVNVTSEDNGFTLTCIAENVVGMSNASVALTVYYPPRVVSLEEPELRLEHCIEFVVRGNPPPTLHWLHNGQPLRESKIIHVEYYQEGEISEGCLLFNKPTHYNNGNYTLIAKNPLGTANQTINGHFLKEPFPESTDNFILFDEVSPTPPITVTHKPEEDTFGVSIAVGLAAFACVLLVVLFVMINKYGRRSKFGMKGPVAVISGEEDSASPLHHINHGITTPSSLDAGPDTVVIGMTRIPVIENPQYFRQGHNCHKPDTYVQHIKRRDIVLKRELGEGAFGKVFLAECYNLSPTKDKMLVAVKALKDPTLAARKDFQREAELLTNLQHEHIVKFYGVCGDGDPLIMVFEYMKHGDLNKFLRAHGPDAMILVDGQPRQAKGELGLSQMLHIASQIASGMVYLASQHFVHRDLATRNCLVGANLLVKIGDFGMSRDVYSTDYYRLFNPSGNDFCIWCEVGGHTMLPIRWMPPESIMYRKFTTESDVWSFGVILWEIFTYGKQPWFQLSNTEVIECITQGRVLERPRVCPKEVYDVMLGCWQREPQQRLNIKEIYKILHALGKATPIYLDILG
T2 sequence (P04629 33-796): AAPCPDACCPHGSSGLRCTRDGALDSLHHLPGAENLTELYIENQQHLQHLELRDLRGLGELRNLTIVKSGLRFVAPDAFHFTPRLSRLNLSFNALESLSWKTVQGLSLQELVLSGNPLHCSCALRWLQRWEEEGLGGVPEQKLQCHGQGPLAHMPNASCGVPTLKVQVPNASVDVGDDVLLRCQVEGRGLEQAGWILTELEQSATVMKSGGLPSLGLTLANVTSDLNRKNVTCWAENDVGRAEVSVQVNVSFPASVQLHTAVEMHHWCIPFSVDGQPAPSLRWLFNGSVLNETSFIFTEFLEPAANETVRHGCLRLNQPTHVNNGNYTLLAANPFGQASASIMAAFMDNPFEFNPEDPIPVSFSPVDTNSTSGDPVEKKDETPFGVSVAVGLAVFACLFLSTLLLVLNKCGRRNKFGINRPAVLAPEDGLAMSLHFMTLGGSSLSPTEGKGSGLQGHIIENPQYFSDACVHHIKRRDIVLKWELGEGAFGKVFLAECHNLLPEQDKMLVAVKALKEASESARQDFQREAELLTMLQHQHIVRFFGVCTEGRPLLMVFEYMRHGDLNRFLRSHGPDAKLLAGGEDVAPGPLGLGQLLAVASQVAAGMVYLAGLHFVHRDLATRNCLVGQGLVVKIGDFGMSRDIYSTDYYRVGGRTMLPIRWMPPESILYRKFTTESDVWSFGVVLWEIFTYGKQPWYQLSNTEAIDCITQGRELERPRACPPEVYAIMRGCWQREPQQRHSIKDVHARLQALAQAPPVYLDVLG

Compound	inhibition at 1 µM (TrkA) [%]	also measured
CC(C)NC(=O)Nc1cccc(-c2cnc3[nH]nc(NC(=O)c4ccc(N5CCN(C)CC5)cc4)c3c2)c1 [Example 9, N-(5-(3-(3-isopropylureido)phenyl)-1H-pyrazolo[3,4-b]pyridine-3-yl)-4-(4-methylpiperazine-1-yl)benzamide]	81	inhibition at 1 µM (TrkC): -20%; inhibition at 1 µM (TrkB): 1%
Cn1cc(-c2cnc3[nH]nc(Nc4cc(Cl)cc(Cl)c4)c3c2)cn1 [Example 6, N-(3,5-dichlorophenyl)-5-(1-methyl-1H-pyrazole-4-yl)-1H-pyrazolo[3,4-b]pyridine-3-amine]	32	
Clc1cc(Cl)cc(Nc2n[nH]c3cnc(-c4cnn(C5CCNCC5)c4)cc23)c1 [Example 3, N-(3,5-dichlorophenyl)-5-(1-(piperidine-4-yl)-1H-pyrazole-4-yl)-1H-pyrazolo[3,4-c]pyridine-3-amine]	6	
CN1CCN(c2ccc(C(=O)Nc3n[nH]c4ncc(-c5ccc(F)cc5)cc34)cc2)CC1 [Example 11, N-(5-(4-fluorophenyl)-1H-pyrazolo[3,4-b]pyridine-3-yl)-4-(4-methylpiperazine-1-yl)benzamide]	99	inhibition at 1 µM (TrkC): 9%; IC50 (TrkA): 0.218 µM; inhibition at 1 µM (TrkB): 17%
CN1CCN(c2ccc(C(=O)Nc3c[nH]c4ncnc(N5CCC(C(N)=O)CC5)c34)cc2)CC1 [Example 20, 1-(5-(4-(4-methylpiperazine-1-yl)benzamido)-7H-pyrrolo[2,3-d]pyrimidine-4-yl)piperidine-4-carboxamide]	4	
Clc1ccc(Nc2n[nH]c3cnc(-c4cnn(C5CCNCC5)c4)cc23)cc1Cl [Example 2, N-(3,4-dichlorophenyl)-5-(1-(piperidine-4-yl)-1H-pyrazole-4-yl)-1H-pyrazolo[3,4-c]pyridine-3-amine]	6	
CN1CCN(c2ccc(C(=O)Nc3c[nH]c4ncnc(N5CCC(N6CCCC6)CC5)c34)cc2)CC1 [Example 19, 4-(4-methylpiperazine-1-yl)-N-(4-(4-(pyrrolidine-1-yl)piperidine-1-yl)-7H-pyrrolo[2,3-d]pyrimidine-5-yl)benzamide]	-1	
Clc1cccc(Nc2n[nH]c3cnc(-c4cccnc4)cc23)c1 [Example 1, N-(3-chlorophenyl)-5-(pyridine-3-yl)-1H-pyrazolo[3,4-c]pyridine-3-amine]	12	
CN1CCN(c2ccc(C(=O)Nc3c[nH]c4ncnc(-c5cnn(C6CCN(C(=O)OC(C)(C)C)CC6)c5)c34)cc2)CC1 [Example 18, tert-butyl 4-(4-(5-(4-(4-methylpiperazine-1-yl)benzamido)-7H-pyrrolo[2,3-d]pyrimidine-4-yl)-1H-pyrazole-1-yl)piperidine-1-carboxylate]	24	
CN1CCN(c2ccc(C(=O)Nc3n[nH]c4ncc(-c5cnn(C6CCNCC6)c5)cc34)cc2)CC1 [Example 8, 4-(4-methylpiperazine-1-yl)-N-(5-(1-(piperidine-4-yl)-1H-pyrazole-4-yl)-1H-pyrazolo[3,4-b]pyridine-3-yl)benzamide]	99	
CN1CCN(c2ccc(C(=O)Nc3c[nH]c4ncnc(-c5cnn(C6CCNCC6)c5)c34)cc2)CC1 [Example 17, 4-(4-methylpiperazine-1-yl)-N-(4-(1-(piperidine-4-yl)-1H-pyrazole-4-yl)-7H-pyrrolo[2,3-d]pyrimidine-5-yl)benzamide]	-11	
COc1ccc(Cn2cc(NC(=O)c3ccc(N4CCN(C)CC4)cc3)c3c(-c4cnn(C5CCNCC5)c4)ncnc32)cc1 [Example 16, N-(7-(4-methoxybenzyl)-4-(1-(piperidine-4-yl)-1H-pyrazole-4-yl)-7H-pyrrolo[2,3-d]pyrimidine-5-yl)-4-(4-methylpiperazine-1-yl)benzamide]	8	
CN1CCN(c2ccc(C(=O)Nc3c[nH]c4ncnc(-c5cc(Cl)c(O)c(Cl)c5)c34)cc2)CC1 [Example 24, N-(4-(3,5-dichloro-4-hydroxyphenyl)-7H-pyrrolo[2,3-d]pyrimidine-5-yl)-4-(4-methylpiperazine-1-yl)benzamide]	49	
Cn1cc(-c2cnc3[nH]nc(Nc4cccc(Cl)c4)c3c2)cn1 [Example 4, N-(3-chlorophenyl)-5-(1-methyl-1H-pyrazole-4-yl)-1H-pyrazolo[3,4-b]pyridine-3-amine]	59	
Clc1cc(Cl)cc(Nc2n[nH]c3ncc(-c4cnn(C5CCNCC5)c4)cc23)c1 [Example 7, N-(3,5-dichlorophenyl)-5-(1-(piperidine-4-yl)-1H-pyrazole-4-yl)-1H-pyrazolo[3,4-b]pyridine-3-amine]	37	
Oc1c(Cl)cc(-c2c[nH]c3ncnc(NC4CCC(O)CC4)c23)cc1Cl (stereo not drawn) [Example 23, 2,6-dichloro-4-(4-((1s,4s)-4-hydroxycyclohexylamino)-7H-pyrrolo[2,3-d]pyrimidine-5-yl)phenol]	100	inhibition at 1 µM (TrkC): 15%; IC50 (TrkA): 0.0579 µM; IC50 (TrkB): 0.894 µM; inhibition at 1 µM (TrkB): 56%
Cn1cc(-c2cnc3[nH]nc(Nc4ccc(Cl)c(Cl)c4)c3c2)cn1 [Example 5, N-(3,4-dichlorophenyl)-5-(1-methyl-1H-pyrazole-4-yl)-1H-pyrazolo[3,4-b]pyridine-3-amine]	32	
CC(C)C[C@H](CN)CC(=O)O [Lyrica, Pregabalin, reference compound]		ED50 ([1]; Rattus norvegicus, po, 48 h): 17.5 mg/kg; Maximum duration of drug efficacy ([1]; oral, rat postoperative pain model, 2 days after surgery): 1.0 h
CN1CCN(c2ccc(C(=O)Nc3c[nH]c4ncnc(N5CCCC(NC(N)=O)C5)c34)cc2)CC1 (stereo not drawn) [Example 21, 4-(4-methylpiperazine-1-yl)-N-(4-(3-ureidopiperidine-1-yl)-7H-pyrrolo[2,3-d]pyrimidine-5-yl)benzamide]	0	
O=C(Nc1n[nH]c2ncc(-c3cnn(C4CCNCC4)c3)cc12)c1ccc(F)cc1 [Example 22, 4-fluoro-N-(5-(1-(piperidine-4-yl)-1H-pyrazole-4-yl)-1H-pyrazolo[3,4-b]pyridine-3-yl)benzamide]	99	inhibition at 1 µM (TrkC): 20%; IC50 (TrkA): 0.436 µM; inhibition at 1 µM (TrkB): -2%
